In patent publication US12421240B2, “Hydropyrazino[1,2-d][1,4]diazepine compounds for the treatment of autoimmune disease” (Hoffmann-La Roche Inc., priority 2019, dated 2025):

What follows are compounds tested against T1, human TLR8 (Homo sapiens, UniProt Q9NR97) (assay: HEK293-Blue-hTLR-8 cells assay (SEAP reporter, R848 stimulation)). Details: HEK293-Blue-hTLR8 cells, R848 ligand, 20 hrs; read-out: HEK/hTLR8 IC50.
T1 sequence (Q9NR97 27-1041): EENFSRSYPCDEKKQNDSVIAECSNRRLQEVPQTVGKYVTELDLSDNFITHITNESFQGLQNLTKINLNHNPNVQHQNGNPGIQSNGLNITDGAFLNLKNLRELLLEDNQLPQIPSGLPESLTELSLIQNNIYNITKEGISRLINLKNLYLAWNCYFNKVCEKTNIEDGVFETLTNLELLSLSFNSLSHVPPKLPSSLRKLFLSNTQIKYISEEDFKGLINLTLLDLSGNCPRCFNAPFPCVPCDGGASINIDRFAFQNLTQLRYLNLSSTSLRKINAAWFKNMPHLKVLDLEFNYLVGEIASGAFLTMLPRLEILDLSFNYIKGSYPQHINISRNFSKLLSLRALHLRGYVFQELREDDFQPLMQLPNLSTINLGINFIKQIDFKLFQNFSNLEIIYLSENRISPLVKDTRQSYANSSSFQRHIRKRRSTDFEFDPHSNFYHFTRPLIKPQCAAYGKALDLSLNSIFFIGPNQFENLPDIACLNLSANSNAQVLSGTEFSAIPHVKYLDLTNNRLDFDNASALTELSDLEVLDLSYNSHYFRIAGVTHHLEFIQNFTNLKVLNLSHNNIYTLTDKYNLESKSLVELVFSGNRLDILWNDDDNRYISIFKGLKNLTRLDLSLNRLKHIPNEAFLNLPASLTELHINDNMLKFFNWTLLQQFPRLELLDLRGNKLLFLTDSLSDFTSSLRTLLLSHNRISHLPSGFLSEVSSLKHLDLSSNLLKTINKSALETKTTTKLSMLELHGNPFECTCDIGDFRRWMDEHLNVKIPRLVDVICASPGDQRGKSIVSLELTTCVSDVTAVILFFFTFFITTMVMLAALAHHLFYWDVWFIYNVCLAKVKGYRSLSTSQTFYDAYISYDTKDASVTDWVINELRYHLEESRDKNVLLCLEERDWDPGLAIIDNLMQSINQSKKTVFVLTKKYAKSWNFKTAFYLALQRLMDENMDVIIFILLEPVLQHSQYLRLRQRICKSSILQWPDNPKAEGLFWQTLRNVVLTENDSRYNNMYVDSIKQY
Format: cell-based
Description: The following tests were carried out in order to determine the activity of the compounds of formula (I), (Ia) or (Ib) in HEK293-Blue-hTLR-7/8/9 cells assay.
HEK293-Blue-hTLR-8 Cells Assay:
A stable HEK293-Blue-hTLR-8 cell line was purchased from InvivoGen (Cat. #: hkb-htlr8, San Diego, California, USA). These cells were originally designed for studying the stimulation of human TLR8 by monitoring the activation of NF-κB. A SEAP (secreted embryonic alkaline phosphatase) reporter gene was placed under the control of the IFN-β minimal promoter fused to five NF-κB and AP-1-binding sites. The SEAP was induced by activating NF-κB and AP-1 via stimulating HEK-Blue hTLR8 cells with TLR8 ligands. Therefore the reporter expression was declined by TLR8 antagonist under the stimulation of a ligand, such as R848, for incubation of 20 hrs. The cell culture supernatant SEAP reporter activity was determined using QUANTI-Blue™ kit (Cat. #: rep-qb1, Invivogen, San Diego, Ca., USA) at a wavelength of 640 nm, a detection medium that turns purple or blue in the presence of alkaline phosphatase.
HEK293-Blue-hTLR8 cells were incubated at a density of 250,000˜450,000 cells/mL in a volume of 170 μL in a 96-well plate in Dulbecco's Modified Eagle's medium (DMEM) containing 4.5 g/L glucose, 50 U/mL penicillin, […], […], 2 mM L-glutamine, 10% (v/v) heat-inactivated fetal bovine serum with addition of 20 μL test compound in a serial dilution in the presence of final DMSO at 1% and 10 μL of 60 uM R848 in above DMEM, perform incubation under 37° C. in a CO2 incubator for 20 hrs. Then 20 μL of the supernatant from each well was incubated with 180 μL Quanti-blue substrate solution at 37° C. for 2 hrs and the absorbance was read at 620-655 nm using a spectrophotometer. The signaling pathway that TLR8 activation leads to downstream NF-κB activation has been widely accepted, and therefore similar reporter assay was modified for evaluating TLR8 antagonist.

Point of comparison: `C[C@@H]1CN(c2ccc(C#N)c3ncccc23)C[C@@H]2CCN(Cc3ccc(N4CCNCC4)cn3)CCN21` [Example 19, 5-[(4R,10aS)-4-methyl-8-[(5-piperazin-1-yl-2-pyridyl)methyl]-1,3,4,6,7,9,10,10a-octahydropyrazino[1,2-d][1,4]diazepin-2-yl]quinoline-8-carbonitrile], IC50 10.2 nM. Against it:
- C[C@@H]1CN(c2ccc(C#N)c3ncccc23)C[C@@H]2CCN(Cc3ccc(N4CCOC[C@H](N)C4)cn3)CCN21 [Example 21, 5-[(4R,10aS)-8-[[5-[(6R)-6-amino-1,4-oxazepan-4-yl]-2-pyridyl]methyl]-4-methyl-1,3,4,6,7,9,10,10a-octahydropyrazino[1,2-d][1,4]diazepin-2-yl]quinoline-8-carbonitrile] — 8.5-fold higher, 86.9 nM
- C[C@@H]1CN(c2ccc(C#N)c3ncccc23)C[C@@H]2CCN(Cc3ccc(N4C[C@@H](N)[C@@H](F)C4)cn3)CCN21 [Example 20, 5-[(4R,10aS)-8-[[5-[(3R,4S)-3-amino-4-fluoro-pyrrolidin-1-yl]-2-pyridyl]methyl]-4-methyl-1,3,4,6,7,9,10,10a-octahydropyrazino[1,2-d][1,4]diazepin-2-yl]quinoline-8-carbonitrile] — within 1.5-fold, 11 nM
- C[C@@H]1CN(c2ccc(C#N)c3ncccc23)C[C@@H]2CCN(Cc3cc4c(cn3)CNCC4)CCN21 [Example 8, 5-[(4R,10aS)-4-methyl-8-(5,6,7,8-tetrahydro-2,7-naphthyridin-3-ylmethyl)-1,3,4,6,7,9,10,10a-octahydropyrazino[1,2-d][1,4]diazepin-2-yl]quinoline-8-carbonitrile] — within 1.5-fold, 8.6 nM
- C[C@@H]1CN(c2ccc(C#N)c3ncccc23)C[C@@H]2CCN(c3ccc4c(n3)CNCC4)CCN21 [Example 5, 5-[(4R,10aS)-4-methyl-8-(5,6,7,8-tetrahydro-1,7-naphthyridin-2-yl)-1,3,4,6,7,9,10,10a-octahydropyrazino[1,2-d][1,4]diazepin-2-yl]quinoline-8-carbonitrile] — 2.6-fold lower, 3.9 nM
- C[C@@H]1CN(c2ccc(C#N)c3ncccc23)C[C@@H]2CCN(Cc3cc4c(cn3)CCNC4)CCN21 [Example 9, 5-[(4R,10aS)-4-methyl-8-(5,6,7,8-tetrahydro-2,6-naphthyridin-3-ylmethyl)-1,3,4,6,7,9,10,10a-octahydropyrazino[1,2-d][1,4]diazepin-2-yl]quinoline-8-carbonitrile] — 1.6-fold lower, 6.4 nM
- CO[C@@H]1CN(c2cnc(CN3CC[C@H]4CN(c5ccc(C#N)c6ncccc56)C[C@@H](C)N4CC3)c(F)c2)C[C@H]1N [Example 24, 5-[(4R,10aS)-8-[[5-[(3R,4R)-3-amino-4-methoxy-pyrrolidin-1-yl]-3-fluoro-2-pyridyl]methyl]-4-methyl-1,3,4,6,7,9,10,10a-octahydropyrazino[1,2-d][1,4]diazepin-2-yl]quinoline-8-carbonitrile] — within 1.5-fold, 7.9 nM
- C[C@@H]1CN(c2ccc(C#N)c3ncccc23)C[C@@H]2CCN(Cc3cnc(N4CCNCC4)nc3)CCN21 [Example 14, 5-[(4R,10aS)-4-methyl-8-[(2-piperazin-1-ylpyrimidin-5-yl)methyl]-1,3,4,6,7,9,10,10a-octahydropyrazino[1,2-d][1,4]diazepin-2-yl]quinoline-8-carbonitrile] — 2.1-fold lower, 4.9 nM
- C[C@@H]1CN(c2ccc(C#N)c3ncccc23)C[C@@H]2CCN(Cc3ncc(N4CCNCC4)cn3)CCN21 [Example 13, 5-[(4R,10aS)-4-methyl-8-[(5-piperazin-1-ylpyrimidin-2-yl)methyl]-1,3,4,6,7,9,10,10a-octahydropyrazino[1,2-d][1,4]diazepin-2-yl]quinoline-8-carbonitrile] — 3.1-fold higher, 31.7 nM
- CO[C@@H]1CN(c2cnc(CN3CC[C@H]4CN(c5ccc(C#N)n6ncc(F)c56)C[C@@H](C)N4CC3)c(F)c2)C[C@H]1N [Example 27, 4-[(4R,10aS)-8-[[5-[(3R,4R)-3-amino-4-methoxy-pyrrolidin-1-yl]-3-fluoro-2-pyridyl]methyl]-4-methyl-1,3,4,6,7,9,10,10a-octahydropyrazino[1,2-d][1,4]diazepin-2-yl]-3-fluoro-pyrazolo[1,5-a]pyridine-7-carbonitrile] — within 1.5-fold, 10.1 nM
- C[C@@H]1CN(c2ccc(C#N)c3ncccc23)C[C@@H]2CCN(c3ccc4c(n3)CCNC4)CCN21 [Example 6, 5-[(4R,10aS)-4-methyl-8-(5,6,7,8-tetrahydro-1,6-naphthyridin-2-yl)-1,3,4,6,7,9,10,10a-octahydropyrazino[1,2-d][1,4]diazepin-2-yl]quinoline-8-carbonitrile] — lower, < 3.2 nM
- C[C@@H]1CN(c2ccc(C#N)c3ncccc23)C[C@@H]2CCN(c3cc4c(cn3)CNCC4)CCN21 [Example 7, 5-[(4R,10aS)-4-methyl-8-(5,6,7,8-tetrahydro-2,7-naphthyridin-3-yl)-1,3,4,6,7,9,10,10a-octahydropyrazino[1,2-d][1,4]diazepin-2-yl]quinoline-8-carbonitrile] — 6.8-fold lower, 1.5 nM
- C[C@@H]1CN(c2cc(=O)n(C)c3ncccc23)C[C@@H]2CCN(Cc3ccc4c(c3)CNCC4)CCN21 [Example 28, 4-[(4R,10aS)-4-methyl-8-(1,2,3,4-tetrahydroisoquinolin-7-ylmethyl)-1,3,4,6,7,9,10,10a-octahydropyrazino[1,2-d][1,4]diazepin-2-yl]-1-methyl-1,8-naphthyridin-2-one] — 5-fold higher, 51.1 nM
- C[C@@H]1CN(c2ccc(C#N)c3ncccc23)C[C@@H]2CCN(Cc3cnc(N4CCNCC4)cn3)CCN21 [Example 15, 5-[(4R,10aS)-4-methyl-8-[(5-piperazin-1-ylpyrazin-2-yl)methyl]-1,3,4,6,7,9,10,10a-octahydropyrazino[1,2-d][1,4]diazepin-2-yl]quinoline-8-carbonitrile] — within 1.5-fold, 8.6 nM
- C[C@@H]1CN(c2ccc(C#N)c3ncccc23)C[C@@H]2CCN(c3ccc(N4CCNCC4)nc3)CCN21 [Example 1, 5-[(4R,10aS)-4-methyl-8-(6-piperazin-1-yl-3-pyridyl)-1,3,4,6,7,9,10,10a-octahydropyrazino [1,2-d][1,4]diazepin-2-yl]quinoline-8-carbonitrile] — 6-fold higher, 61.7 nM
- C[C@@H]1CN(c2ccc(C#N)c3ncccc23)C[C@@H]2CCN(c3cnc(N4CCNCC4)nc3)CCN21 [Example 2, 5-[(4R,10aS)-4-methyl-8-(2-piperazin-1-ylpyrimidin-5-yl)-1,3,4,6,7,9,10,10a-octahydropyrazino[1,2-d][1,4]diazepin-2-yl]quinoline-8-carbonitrile] — 2.5-fold higher, 25.2 nM
- C[C@@H]1CN(c2ccc(C#N)c3ncccc23)C[C@@H]2CCN(Cc3cnc4c(c3)CNCC4)CCN21 [Example 10, 5-[(4R,10aS)-4-methyl-8-(5,6,7,8-tetrahydro-1,6-naphthyridin-3-ylmethyl)-1,3,4,6,7,9,10,10a-octahydropyrazino[1,2-d][1,4]diazepin-2-yl]quinoline-8-carbonitrile] — 2-fold lower, 5.2 nM
- C[C@@H]1CN(c2ccc(C#N)c3ncccc23)C[C@@H]2CCN(Cc3ccc(N4CCNCC4)nc3)CCN21 [Example 17, 5-[(4R,10aS)-4-methyl-8-[(6-piperazin-1-yl-3-pyridyl)methyl]-1,3,4,6,7,9,10,10a-octahydropyrazino[1,2-d][1,4]diazepin-2-yl]quinoline-8-carbonitrile] — 3-fold lower, 3.4 nM
